From patent publication US20230391739A1, “ARYL DERIVATIVES FOR TREATING TRPM3 MEDIATED DISORDERS” (Katholieke Universiteit Leuven, priority 2020, published 2023)

Biological target: T1, mouse TRPM3α2 (mTRPM3) ion channel (Mus musculus, UniProt J9SQF3)
T1 construct: expressed in transfected cells; host or cells: flip-in HEK293
Assay: TRPM3 ion channel driven Ca2+ uptake, Fluo-4 AM assay, PS-stimulated (mTRPM3)
Format: cell-based
Conditions: TRPM3 overexpressing flip-in HEK293 cells stimulated with Pregnenolone sulfate (PS) 50 μM, activity ranges A, B, C
Summary of the method: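 Flp-In HEK293 cells overexpressing mTRPM3α2 were added, in Ca²⁺-free Krebs, to wells already holding compound and 50 μM pregnenolone sulfate in Ca²⁺-containing Krebs. Fluo-4 AM fluorescence (ex 485/em 535 nm) was read immediately. Percent inhibition was computed from RFU relative to PS/vehicle wells and a positive-control inhibitor.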

T1 sequence (J9SQF3 1-1709 isoform J9SQF3-12): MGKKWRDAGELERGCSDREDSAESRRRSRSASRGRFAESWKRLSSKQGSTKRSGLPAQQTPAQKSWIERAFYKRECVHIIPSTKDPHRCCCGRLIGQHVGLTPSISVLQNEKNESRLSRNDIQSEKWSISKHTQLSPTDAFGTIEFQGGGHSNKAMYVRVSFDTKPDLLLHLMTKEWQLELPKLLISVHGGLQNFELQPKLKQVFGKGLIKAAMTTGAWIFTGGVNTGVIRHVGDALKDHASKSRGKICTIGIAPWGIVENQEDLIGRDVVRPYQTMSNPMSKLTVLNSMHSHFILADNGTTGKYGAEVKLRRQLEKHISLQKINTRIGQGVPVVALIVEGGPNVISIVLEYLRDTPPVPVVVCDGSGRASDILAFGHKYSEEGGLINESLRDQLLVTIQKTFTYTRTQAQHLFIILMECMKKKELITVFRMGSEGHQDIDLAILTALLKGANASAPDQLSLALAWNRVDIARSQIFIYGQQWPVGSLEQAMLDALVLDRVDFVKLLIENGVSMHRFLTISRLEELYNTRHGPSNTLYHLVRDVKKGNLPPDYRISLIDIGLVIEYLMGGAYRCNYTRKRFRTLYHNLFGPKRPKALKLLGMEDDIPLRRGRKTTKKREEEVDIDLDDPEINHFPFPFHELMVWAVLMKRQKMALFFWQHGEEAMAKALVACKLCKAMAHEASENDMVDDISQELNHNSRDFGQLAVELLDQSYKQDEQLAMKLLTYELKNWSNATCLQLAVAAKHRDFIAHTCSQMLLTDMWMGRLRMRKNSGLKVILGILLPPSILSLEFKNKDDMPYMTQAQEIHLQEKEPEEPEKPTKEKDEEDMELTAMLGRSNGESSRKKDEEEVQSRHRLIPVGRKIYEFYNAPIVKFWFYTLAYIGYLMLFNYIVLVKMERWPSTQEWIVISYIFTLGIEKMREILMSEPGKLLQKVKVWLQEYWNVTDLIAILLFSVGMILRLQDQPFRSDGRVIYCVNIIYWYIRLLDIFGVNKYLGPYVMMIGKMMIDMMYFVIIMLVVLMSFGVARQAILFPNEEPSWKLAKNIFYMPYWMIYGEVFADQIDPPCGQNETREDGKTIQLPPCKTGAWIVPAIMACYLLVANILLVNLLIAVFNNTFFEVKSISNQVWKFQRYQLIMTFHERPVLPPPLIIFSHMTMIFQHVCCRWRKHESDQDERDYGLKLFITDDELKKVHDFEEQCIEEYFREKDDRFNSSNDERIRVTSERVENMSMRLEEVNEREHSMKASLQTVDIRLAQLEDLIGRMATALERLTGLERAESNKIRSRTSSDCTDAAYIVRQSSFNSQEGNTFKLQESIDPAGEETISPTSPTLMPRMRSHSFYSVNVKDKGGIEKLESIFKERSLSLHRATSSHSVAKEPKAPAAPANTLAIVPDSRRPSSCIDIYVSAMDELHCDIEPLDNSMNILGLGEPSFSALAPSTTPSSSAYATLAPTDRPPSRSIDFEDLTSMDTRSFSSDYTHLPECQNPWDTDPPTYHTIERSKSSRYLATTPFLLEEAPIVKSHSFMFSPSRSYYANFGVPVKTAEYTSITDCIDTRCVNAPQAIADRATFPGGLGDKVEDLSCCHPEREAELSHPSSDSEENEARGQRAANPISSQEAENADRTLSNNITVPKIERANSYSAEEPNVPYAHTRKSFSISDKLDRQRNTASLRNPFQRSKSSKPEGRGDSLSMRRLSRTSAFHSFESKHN

IC50 [nM]	SMILES
< 1000	Cc1oc2ccc(OCc3ccccc3)cc2c1C(=O)N[C@@H]1CN[C@H](CO)C1 [Cpd 126, 5-(benzyloxy)-N-((3S,5S)-5-(hydroxymethyl)pyrrolidin-3-yl)-2-methylbenzofuran-3-carboxamide]
> 20000	Cc1oc2ccc(OCc3ccccc3)cc2c1C(=O)N1CCC(N)CC1 [Cpd 073, (4-aminopiperidin-1-yl)(5-(benzyloxy)-2-methylbenzofuran-3-yl)methanone]
< 1000	Cc1oc2ccc(OCc3ccccc3)cc2c1C(=O)NC1CCN(C)CC1 [Cpd 117, 5-(benzyloxy)-2-methyl-N-(1-methylpiperidin-4-yl)benzofuran-3-carboxamide]
1000 to 20000	Cc1oc2ccc(OCc3ccccc3)cc2c1C(=O)N[C@H]1C[C@H]2C(=O)NCC(=O)N2C1 [Cpd 222, 5-(benzyloxy)-N-((7S,8aS)-1,4-dioxooctahydropyrrolo[1,2-a]pyrazin-7-yl)-2-methylbenzofuran-3-carboxamide]
< 1000	Cc1oc2ccc(OCc3ccccc3)cc2c1C(=O)N[C@@H]1CCCN(C2COC2)C1 [Cpd 207, (R)-5-(benzyloxy)-2-methyl-N-(1-(oxetan-3-yl)piperidin-3-yl)benzofuran-3-carboxamide]
1000 to 20000	Cc1oc2ccc(OCc3ccccc3)cc2c1C(=O)NC1CCN(C(=O)OC(C)(C)C)C(C)C1 (stereo not drawn) [Cpd 252, tert-butyl cis-4-(5-(benzyloxy)-2-methylbenzofuran-3-carboxamido)-2-methylpiperidine-1-carboxylate]
< 1000	Cc1oc2ccc(OCc3ccccc3)cc2c1C(=O)N[C@H]1CCNC1=O [Cpd 069, (S)-5-(benzyloxy)-2-methyl-N-(2-oxopyrrolidin-3-yl)benzofuran-3-carboxamide]
1000 to 20000	Cc1oc2ccc(OCc3ccccc3)cc2c1C(=O)N1CCC(C)CC1 [Cpd 067, (5-(benzyloxy)-2-methylbenzofuran-3-yl)(4-methylpiperidin-1-yl)methanone]
< 1000	Cc1oc2ccc(OCc3ccccc3)cc2c1C(=O)NCC1CCCN1 (centres unmarked) [Cpd 078, 5-(benzyloxy)-2-methyl-N-(pyrrolidin-2-ylmethyl)benzofuran-3-carboxamide]
1000 to 20000	Cc1oc2ccc(OCc3cccc(OC(F)(F)F)c3)cc2c1C(=O)N[C@H]1CCNC1 [Cpd 223, (S)-2-methyl-N-(pyrrolidin-3-yl)-5-((3-(trifluoromethoxy)benzyl)oxy)benzofuran-3-carboxamide]
< 1000	COc1ccccc1COc1ccc2oc(C)c(C(=O)NC3CCNC3=O)c2c1 (centres unmarked) [Cpd 164, 5-((2-methoxybenzyl)oxy)-2-methyl-N-(2-oxopyrrolidin-3-yl)benzofuran-3-carboxamide]
1000 to 20000	COc1ccccc1COc1ccc2oc(C)c(C(=O)O)c2c1 [Cpd 013, 5-((2-methoxybenzyl)oxy)-2-methylbenzofuran-3-carboxylic acid]
1000 to 20000	Cc1oc2ccc(OCc3cccc(OC(F)(F)F)c3)cc2c1C(=O)NC1CCN(C)CC1 [Cpd 244, 2-methyl-N-(1-methylpiperidin-4-yl)-5-((3-(trifluoromethoxy)benzyl)oxy)benzofuran-3-carboxamide]
1000 to 20000	Cc1oc2ccc(OCc3ccccc3)cc2c1C(=O)N[C@H]1C[C@@H]2CN(C(=O)OC(C)(C)C)C[C@@H]2C1 [Cpd 259, tert-butyl trans-5-(5-(benzyloxy)-2-methylbenzofuran-3-carboxamido)hexahydrocyclopenta-[c]pyrrole-2(1H)-carboxylate]
< 1000	Cc1oc2ccc(OCc3ccccc3F)cc2c1C(=O)N[C@@H]1COC[C@@H]1O (single isomer, unassigned) [Cpd 329-En 2]
< 1000	Cc1oc2ccc(OCc3ccccc3F)cc2c1C(=O)NC1(CO)CC1 [Cpd 325, 5-((2-fluorobenzyl)oxy)-N-(1-(hydroxymethyl)cyclopropyl)-2-methylbenzofuran-3-carboxamide]
> 20000	Cc1oc2ccc(OCc3ccc(CN)cc3)cc2c1C(=O)NC1CCN(C)CC1 [Cpd 190, 5-((4-(aminomethyl)benzyl)oxy)-2-methyl-N-(1-methylpiperidin-4-yl)benzofuran-3-carboxamide]
< 1000	Cc1oc2ccc(OCc3ccccc3)cc2c1C(=O)NCc1ccnn1C [Cpd 104, 5-(benzyloxy)-2-methyl-N-((1-methyl-1H-pyrazol-5-yl)methyl)benzofuran-3-carboxamide]
1000 to 20000	COC1CCC(NC(=O)c2c(C)oc3ccc(OCc4ccccc4)cc23)CC1 (centres unmarked) [Cpd 159, 5-(benzyloxy)-N-(4-methoxycyclohexyl)-2-methylbenzofuran-3-carboxamide]
< 1000	Cc1oc2ccc(OCc3cccc(F)c3)cc2c1C(=O)NCC1CCCO1 (centres unmarked) [Cpd 132, 5-((3-fluorobenzyl)oxy)-2-methyl-N-((tetrahydrofuran-2-yl)methyl)benzofuran-3-carboxamide]
< 1000	Cc1oc2ccc(OCc3ccccc3F)cc2c1C(=O)O [Cpd 008, 5-((2-fluorobenzyl)oxy)-2-methylbenzofuran-3-carboxylic acid]
< 1000	Cc1oc2ccc(OCc3ccccc3)cc2c1C(=O)NC1(CO)CCOCC1 [Cpd 167, 5-(benzyloxy)-N-(4-(hydroxymethyl)tetrahydro-2H-pyran-4-yl)-2-methylbenzofuran-3-carboxamide]

More lines, now with the values behind:

SMILES	IC50 [nM]
Cc1oc2ccc(OCc3cccc(C(F)(F)F)c3)cc2c1C(=O)N[C@H]1CCNC1 [Cpd 204, (S)-2-methyl-N-(pyrrolidin-3-yl)-5-((3-(trifluoromethyl)benzyl)oxy)benzofuran-3-carboxamide]	< 1000
Cc1oc2ccc(OCc3c(F)cccc3F)cc2c1C(=O)NC1CCNCC1(F)F (centres unmarked) [Cpd 226, 5-((2,6-difluorobenzyl)oxy)-N-(3,3-difluoropiperidin-4-yl)-2-methylbenzofuran-3-carboxamide]	< 1000
Cc1oc2ccc(OCc3cccc(CN)c3)cc2c1C(=O)NC1CCNC1=O (centres unmarked) [Cpd 157, 5-((3-(aminomethyl)benzyl)oxy)-2-methyl-N-(2-oxopyrrolidin-3-yl)benzofuran-3-carboxamide]	> 20000
Cc1oc2ccc(OCc3ccccc3F)cc2c1C(=O)NC1CCN(CCO)C1=O (single isomer, unassigned) [Cpd 311-En 1, 5-((2-Fluorobenzyl)oxy)-N-(1-(2-hydroxyethyl)-2-oxopyrrolidin-3-yl)-2-methylbenzofuran-3-carboxamide]	< 1000
Cc1oc2ccc(OCc3ccccc3)cc2c1C(=O)NC1CCCN(C(=O)OC(C)(C)C)C1 (centres unmarked) [Cpd 247, tert-butyl 3-(5-(benzyloxy)-2-methylbenzofuran-3-carboxamido)piperidine-1-carboxylate]	> 20000
Cc1oc2ccc(OCc3ccccc3)cc2c1C(=O)NC1CCC(C)CC1 (centres unmarked) [Cpd 106, 5-(benzyloxy)-2-methyl-N-(4-methylcyclohexyl)benzofuran-3-carboxamide]	> 20000
CCc1oc2ccc(OCc3cccc(F)c3)cc2c1C(=O)O [Cpd 015, 2-ethyl-5-((3-fluorobenzyl)oxy)benzofuran-3-carboxylic acid]	1000 to 20000
Cc1oc2ccc(OCc3ccccc3)cc2c1C(=O)NC1CCNCC1 [Cpd 074, 5-(benzyloxy)-2-methyl-N-(piperidin-4-yl)benzofuran-3-carboxamide]	< 1000
Cc1oc2ccc(OCc3ccccc3F)cc2c1C(=O)NC(CO)C(N)=O (single isomer, unassigned) [Cpd 314-En 2]	< 1000
Cc1oc2ccc(OCc3ccccc3)cc2c1C(=O)N[C@H]1CCCNC1=O [Cpd 109, (S)-5-(benzyloxy)-2-methyl-N-(2-oxopiperidin-3-yl)benzofuran-3-carboxamide]	< 1000
Cc1oc2ccc(OCc3ccc(F)cc3)cc2c1C(=O)O [Cpd 009, 5-((4-fluorobenzyl)oxy)-2-methylbenzofuran-3-carboxylic acid]	1000 to 20000
Cc1oc2ccc(OCc3ccccc3)cc2c1C(=O)N[C@H]1C[C@H]2CC[C@@H](C1)N2C [Cpd 183, 5-(benzyloxy)-2-methyl-N-((1R,3r,5S)-8-methyl-8-azabicyclo[3.2.1]octan-3-yl)benzofuran-3-carboxamide]	< 1000
Cc1oc2ccc(OC(CCN(C)C)c3ccccc3)cc2c1C(=O)NC1CCNC1=O (centres unmarked) [Cpd 224, 5-(3-(dimethylamino)-1-phenylpropoxy)-2-methyl-N-(2-oxopyrrolidin-3-yl)benzofuran-3-carboxamide]	> 20000
Cc1oc2ccc(OCc3ccccc3F)cc2c1C(=O)NC1(C(N)=O)CC1 [Cpd 326, N-(1-carbamoylcyclopropyl)-5-((2-fluorobenzyl)oxy)-2-methylbenzofuran-3-carboxamide]	< 1000
Cc1oc2ccc(OCc3ccccc3)cc2c1C(=O)NC1CCN(c2ncccn2)CC1 [Cpd 230, 5-(benzyloxy)-2-methyl-N-(1-(pyrimidin-2-yl)piperidin-4-yl)benzofuran-3-carboxamide]	< 1000
Cc1oc2cc(F)c(OCc3ccccc3)cc2c1C(=O)NC1CNCC1(F)F (single isomer, unassigned) [Cpd 302-En 1, 5-(benzyloxy)-N-(4,4-difluoropyrrolidin-3-yl)-6-fluoro-2-methylbenzofuran-3-carboxamide]	< 1000
Cc1oc2cc(F)c(OCc3ccccc3)cc2c1C(=O)NC1CNCC1(F)F (single isomer, unassigned) [Cpd 302-En 2, 5-(benzyloxy)-N-(4,4-difluoropyrrolidin-3-yl)-6-fluoro-2-methylbenzofuran-3-carboxamide]	< 1000
Cc1oc2ccc(OCc3ccccc3)cc2c1C(=O)NCc1nnc2ncccn12 [Cpd 196, N-([1,2,4]triazolo[4,3-a]pyrimidin-3-ylmethyl)-5-(benzyloxy)-2-methylbenzofuran-3-carboxamide]	1000 to 20000
Cc1oc2ccc(OCc3ccccc3)cc2c1C(=O)N[C@H]1C[C@H]2C(=O)N(C)CC(=O)N2C1 [Cpd 235, 5-(benzyloxy)-2-methyl-N-((7S,8aS)-2-methyl-1,4-dioxooctahydropyrrolo[1,2-a]pyrazin-7-yl)benzofuran-3-carboxamide]	1000 to 20000
